Results taken from patent US10494368B2, “Pesticidally active tetracyclic derivatives with sulfur containing substituents” (Syngenta Participations AG, priority 2015, dated 2019).

Columns and labels:
Assay type in all cases: in vivo
[1] = test system: Spodoptera littoralis (Egyptian Cotton Leaf Worm); test: Spodoptera littoralis, uptake by lettuce roots from agar; conditions: 144 h, test rate 12.5 ppm, compound absorbed by lettuce roots, 6 days after infestation, read-out: effect in at least one of the three categories (mortality, anti-feeding, or growth inhibition)
From the text: Test compounds were applied by pipette from 10′000 ppm DMSO stock solutions into 24-well plates and mixed with agar. Lettuce seeds were placed onto the agar and the multi well plate was closed by another plate which contained also agar. After 7 days the compound was absorbed by the roots and the lettuce grew into the lid plate. The lettuce leaves were then cut off into the lid plate. Spodoptera eggs were pipetted through a plastic stencil onto a humid gel blotting paper and the lid plate was closed with it. The samples were assessed for mortality, anti-feedant effect and growth inhibition in comparison to untreated samples 6 days after infestation.
The following compounds gave an effect of at least 80% in at least one of the three categories (mortality, anti-feeding, or growth inhibition) at a test rate of 12.5 ppm: A3, A4, A5, A6, A8, A10, B3, B4, B5 and C2.

[2] = test system: Diabrotica Balteata (Corn Root Worm); test: Diabrotica balteata on maize sprouts, spray; conditions: 96 h, application rate 200 ppm, L2 larvae on maize sprouts, 4 days after infestation, read-out: effect in at least one of the two categories (mortality or growth inhibition)
Procedure: Maize sprouts placed onto an agar layer in 24-well microtiter plates were treated with aqueous test solutions prepared from 10′000 ppm DMSO stock solutions by spraying. After drying, the plates were infested with L2 larvae (6 to 10 per well). The samples were assessed for mortality and growth inhibition in comparison to untreated samples 4 days after infestation.
(§1) The following compounds gave an effect of at least 80% in at least one of the two categories (mortality or growth inhibition) at an application rate of 200 ppm: […]

[3] = test system: Plutella xylostella (Diamond Back Moth); test: Plutella xylostella on artificial diet; conditions: 120 h, application rate 200 ppm, L2 larvae on artificial diet, 5 days after infestation, read-out: effect in at least one of the two categories (mortality or growth inhibition)
Procedure: 24-well microtiter plates with artificial diet were treated with aqueous test solutions prepared from 10′000 ppm DMSO stock solutions by pipetting. After drying, the plates were infested with L2 larvae (10 to 15 per well). The samples were assessed for mortality and growth inhibition in comparison to untreated samples 5 days after infestation.
as §1

[4] = test system: Spodoptera littoralis (Egyptian Cotton Leaf Worm); test: Spodoptera littoralis on cotton leaf discs, spray; conditions: foliar, 72 h, application rate 200 ppm, L1 larvae on cotton leaf discs, 3 days after infestation
Procedure: Cotton leaf discs were placed onto agar in 24-well microtiter plates and sprayed with aqueous test solutions prepared from 10′000 ppm DMSO stock solutions. After drying the leaf discs were infested with five L1 larvae. The samples were assessed for mortality, anti-feeding effect, and growth inhibition in comparison to untreated samples 3 days after infestation. Control of Spodoptera littoralis by a test sample is given when at least one of the categories mortality, anti-feedant effect, and growth inhibition is higher than the untreated sample.

[5] = test system: Aedes aegypti (Yellow Fever Mosquito); test: Aedes aegypti adult contact test on dried deposits; conditions: application rate 200 ppm in ethanol, adult females, after 48 h and/or 24 h
Procedure: Test solutions, at an application rate of 200 ppm in ethanol, were applied to 12 well tissue culture plates. Once the deposits were dry, five, two to five day old adult female Aedes aegypti were added to each well, and sustained with a 10% sucrose solution in a cotton wool plug. Assessment of knockdown was made one hour after introduction, and mortality was assessed at 24 and 48 hours after introduction.
The following compounds gave at least 80% control of Aedes aegypti after 48 h and/or 24 h: […]

[6] = test system: Tetranychus urticae (Two-Spotted Spider Mite); test: Tetranychus urticae feeding/contact activity on bean leaf discs; conditions: foliar, 192 h
Procedure: Feeding/contact activity Bean leaf discs on agar in 24-well microtiter plates were sprayed with aqueous test solutions prepared from 10′000 ppm DMSO stock solutions. After drying the leaf discs were infested with a mite population of mixed ages. The samples were assessed for mortality on mixed population (mobile stages) 8 days after infestation.

[7] = test system: Euschistus heros (Neotropical Brown Stink Bug); test: Euschistus heros on soybean leaves, spray; conditions: 120 h, application rate 200 ppm, N2 nymphs on soybean leaves, 5 days after infestation, read-out: effect in at least one of the two categories (mortality or growth inhibition)
Procedure: Soybean leaves on agar in 24-well microtiter plates were sprayed with aqueous test solutions prepared from 10′000 ppm DMSO stock solutions. After drying the leaves were infested with N2 nymphs. The samples were assessed for mortality and growth inhibition in comparison to untreated samples 5 days after infestation.
as §1

[8] = test system: Myzus persicae (Green Peach Aphid); test: Myzus persicae intrinsic activity (sucrose solution, Parafilm); conditions: 120 h, test rate 12 ppm, 5 days after infestation
Procedure: Intrinsic activity Test compounds prepared from 10′000 ppm DMSO stock solutions were applied by pipette into 24-well microtiter plates and mixed with sucrose solution. The plates were closed with a stretched Parafilm. A plastic stencil with 24 holes was placed onto the plate and infested pea seedlings were placed directly on the Parafilm. The infested plate was closed with a gel blotting paper and another plastic stencil and then turned upside down. The samples were assessed for mortality 5 days after infestation.

[9] = test system: Myzus persicae (Green Peach Aphid); test: Myzus persicae feeding/contact activity on sunflower leaf discs; conditions: foliar, 144 h, application rate 200 ppm, aphid population of mixed ages on sunflower leaf discs, 6 days after infestation
Procedure: Feeding/Contact activity Sunflower leaf discs were placed onto agar in a 24-well microtiter plate and sprayed with aqueous test solutions prepared from 10′000 ppm DMSO stock solutions. After drying, the leaf discs were infested with an aphid population of mixed ages. The samples were assessed for mortality 6 days after infestation.

[10] = test system: Bemisia tabaci (Cotton White Fly); test: Bemisia tabaci feeding/contact activity on cotton leaf discs; conditions: foliar, 144 h, application rate 200 ppm, adult white flies on cotton leaf discs, 6 days after incubation
Procedure: Feeding/contact activity Cotton leaf discs were placed on agar in 24-well microtiter plates and sprayed with aqueous test solutions prepared from 10′000 ppm DMSO stock solutions. After drying the leaf discs were infested with adult white flies. The samples were checked for mortality 6 days after incubation.

CCSc1c(-c2nc3cc(SC(F)(F)F)cnc3n2C)sc2cc(Br)ccc12 [Compound A3, 2-(6-bromo-3-ethylsulfanyl-benzothiophen-2-yl)-3-methyl-6-(trifluoromethylsulfanyl)imidazo[4,5-b]pyridine]
≥ 80%: percent effect (mortality, anti-feeding or growth inhibition) at 12.5 ppm [1] | percent effect (mortality or growth inhibition) at 200 ppm [2] | percent effect (mortality or growth inhibition) at 200 ppm [3] | percent control (mortality, anti-feedant effect or growth inhibition) at 200 ppm [4] | pest or weed control at 200 ppm [5] | mortality at 200 ppm [6] | percent effect (mortality or growth inhibition) at 200 ppm [7]

CCSc1c(-c2nc3cnc(C(F)(F)F)cc3n2C)sc2ccccc12 [Compound B1, 2-(3-ethylsulfanylbenzothiophen-2-yl)-1-methyl-6-(trifluoromethyl)imidazo[4,5-c]pyridine]
≥ 80%: percent effect (mortality or growth inhibition) at 200 ppm [2] | percent effect (mortality or growth inhibition) at 200 ppm [3] | mortality at 12 ppm [8] | mortality at 200 ppm [9]

CCSc1c(-c2nc3cc(C(F)(F)F)ncc3n2C)sc2cc(C(F)(F)F)ccc12 [Compound B3, 2-[3-ethylsulfanyl-6-(trifluoromethyl)benzothiophen-2-yl]-3-methyl-6-(trifluoromethyl)imidazo[4,5-c]pyridine]
≥ 80%: percent effect (mortality, anti-feeding or growth inhibition) at 12.5 ppm [1] | percent effect (mortality or growth inhibition) at 200 ppm [2] | percent effect (mortality or growth inhibition) at 200 ppm [3] | percent control (mortality, anti-feedant effect or growth inhibition) at 200 ppm [4] | mortality at 12 ppm [8] | pest or weed control at 200 ppm [5] | percent effect (mortality or growth inhibition) at 200 ppm [7]

CCS(=O)(=O)c1c(-c2nc3cc(SC(F)(F)F)ncc3n2C)sc2cc(Br)ccc12 [Compound B5, 2-(6-bromo-3-ethylsulfonyl-benzothiophen-2-yl)-3-methyl-6-(trifluoromethylsulfanyl)imidazo[4,5-c]pyridine]
≥ 80%: percent effect (mortality, anti-feeding or growth inhibition) at 12.5 ppm [1] | percent effect (mortality or growth inhibition) at 200 ppm [2] | percent effect (mortality or growth inhibition) at 200 ppm [3] | percent control (mortality, anti-feedant effect or growth inhibition) at 200 ppm [4] | pest or weed control at 200 ppm [5] | mortality at 200 ppm [10] | mortality at 200 ppm [9] | percent effect (mortality or growth inhibition) at 200 ppm [7]
